Patent publication US20260335453A1, “ISOINDOLINONE-GLUTARIMIDE ANTIBODY CONJUGATES, AND USES THEREOF” (FIREFLY BIO, INC., priority 2023, published 2026)

Key:
SKBR3 cells [1] = assay: Cell proliferation (Cell Titer Glow), SKBR3; format: cell-based; conditions: Homo sapiens, SK-BR-3; IG compounds, cell killing, 72 h
Experimental: (§1) Exemplary isoindolinone-glutarimide (IG) compounds of Table 1a, 1b and 1c were prepared and characterized according to the Examples herein. Certain exemplary IG compounds of(Table 1a were tested for their effects in inhibiting cellular proliferation, including CAL1 WSU-DLCL2, NCI-N87 and SKBR3. CAL51 is a human breast adenocarcinoma cell line with triple-negative status for expression of estrogen, progesterone and HER2 receptors. WSU-DLCL2 is a human B-Cell non-Hodgkin lymphoma cell line that expresses high levels of CD22. NCI-N87 is a human epithelial cell line established from a gastric carcinoma; SKBR3 is a human epithelial cell line established from a breast adenocarcinoma; both NCI-N87 and SKBR3 cell lines express high levels of HER2 receptor. […]
(§2) One day prior to treatment with compounds or IGAC, cells were plated in white 96-well plates (SKBR: 3000 cells/well; CAL-51: 4000 cells/well). Compounds or ADCs were added in a serial-dilution manner reaching the indicated concentrations. Plates were incubated at 37 degrees for 96h (ADCs) or 72h (compounds) whereafter a 1:10 dilution of Cell Titer Glow was used to measure relative cell numbers after 10 min of incubation at room temperature.

CAL51 cells [2] = assay: Degradation assay evaluated by immunofluorescence staining, CAL51; format: cell-based, human; conditions: for Dmax / DC50: Homo sapiens, CAL-51, CAL51, 6 h
Experimental: (§3) One day prior to treatment with compounds, black 96 well plates were coated with fibronectin (0.2 μg/ml in PBS) for 45 min at room temperature and subsequently washed with PBS. CAL-51 or SKBR3 cells were seeded at 30K cells/well (1001) and incubated overnight at 37° C. whereafter compounds were added reaching indicated concentrations. 6 h after treatment the medium was removed, cells were washed with PBS and fixed with 10% formalin for 20 mins at room temperature. Following two PBS washes (150 μl), cells were permeabilized in 0.1% Triton X-100 in PBS for 8 mins at room temperature and subsequently washed again twice with PBS. Cells were blocked thereafter with 1% BSA in PBS for 45 mins. Primary antibody was diluted in blocking buffer and incubated with the cells overnight at 4° C. After three washes with PBS, cells were incubated with secondary antibody for 1 h at RT, washed and subsequently images were taken on an Operetta High-Content Imager.
(§4) For the determination of the DC50, a custom algorithm implemented in the PerkinElmer image analysis software Harmony-Acapella® was used.

WSU-DLCL2 cells = assay: Cell proliferation (Cell Titer Glow), WSU-DLCL2; format: cell-based; conditions: Homo sapiens, WSUDLCL2; IG compounds, cell killing, 72 h
Experimental: Exemplary isoindolinone-glutarimide (IG) compounds of Table 1a, 1b and 1c were prepared and characterized according to the Examples herein. Certain exemplary IG compounds of(Table 1a were tested for their effects in inhibiting cellular proliferation, including CAL1 WSU-DLCL2, NCI-N87 and SKBR3. CAL51 is a human breast adenocarcinoma cell line with triple-negative status for expression of estrogen, progesterone and HER2 receptors. WSU-DLCL2 is a human B-Cell non-Hodgkin lymphoma cell line that expresses high levels of CD22. NCI-N87 is a human epithelial cell line established from a gastric carcinoma; SKBR3 is a human epithelial cell line established from a breast adenocarcinoma; both NCI-N87 and SKBR3 cell lines express high levels of HER2 receptor.
Exemplary embodiments of the isoindolinone-glutarimide antibody conjugates (IGAC) of Formula I are compiled in Table 3. Assessment of IGAC biological activity and other properties may be conducted according to the methods of Example 102. In some instances, the Cell proliferation dose response IC50 value is an average of repetitive assays. Certain exemplary IGAC were tested for their effects in inhibiting cellular proliferation, including CAL51; WSU-DLCL2, NCI-N87 and SKBR3 cell lines. CAL51 is a human breast adenocarcinoma cell line with triple-negative status for expression of estrogen, progesterone and HER2 receptors. WSU-DLCL2 is a human B-Cell non-Hodgkin lymphoma cell line that expresses high levels of CD22. NCI-N87 is a human epithelial cell line established from a gastric carcinoma; SKBR3 is a human epithelial cell line established from a breast adenocarcinoma; both NCI-N87 and SKBR3 cell lines express high levels of HER2 receptor.
On the day of treatment, 10,000 suspension cells/well were plated in white 96-well plates. Compounds or ADCs were added in a serial-dilution manner reaching the indicated concentrations. Plates were incubated at 37 degrees for 72 h whereafter a 1:10 dilution of Cell Titer Glow was used to measure relative cell numbers after 10 min of incubation at room temperature.

CAL51 cells [3] = assay: Cell proliferation (Cell Titer Glow), CAL51; format: cell-based; conditions: Homo sapiens, CAL-51; IG compounds, cell killing, 72 h
Experimental: as §1, §2

SKBR3 cells [4] = assay: Degradation assay evaluated by immunofluorescence staining, SKBR3; format: cell-based; conditions: Homo sapiens, SK-BR-3, SKBR3, 6 h
Experimental: as §3, §4

Row | DC50 (CAL51 cells [2]) [nM] | DC50 (SKBR3 cells [4]) [nM] | Structure (SMILES) | IC50 (SKBR3 cells [1]) [nM] | Dmax (CAL51 cells [2]) [%] | IC50 (WSU-DLCL2 cells) [nM] | IC50 (CAL51 cells [3]) [nM] | Dmax (SKBR3 cells [4]) [%] | Dmax (%) CAL51 (CAL51 cells [2]; CAL51, 6 h)
1 |  |  | CNCCOCCc1ccc(NC(=O)CCc2ccc3c(c2)CN(C2CCC(=O)NC2=O)C3=O)cc1Cl (centres unmarked) [IG-2, N-(3-chloro-4-(2-(2-(methylamino)ethoxy)ethyl)phenyl)-3-(2-(2,6-dioxopiperidin-3-yl)-1-oxoisoindolin-5-yl)propenamide] | > 10000 | < 5 | > 10000 | > 10000 |  | 
2 | 345 ± 135 | 185 | CNCCOCCc1ccc(NC(=O)NCc2ccc3c(c2)CN(C2CCC(=O)NC2=O)C3=O)cc1Cl (centres unmarked) [IG-3, 1-(3-chloro-4-(2-(2-(methylamino)ethoxy)ethyl)phenyl)-3-((2-(2,6-dioxopiperidin-3-yl)-1-oxoisoindolin-5-yl)methyl)urea] | 77.5 | 79.4 ± 3.63 | 66.4 | 3010 | 78.2 | 
3 | 118 ± 35 | 52.2 | Cc1ccc(NC(=O)NCc2ccc3c(c2)CN(C2CCC(=O)NC2=O)C3=O)cc1O (centres unmarked) [IG-12, 1-((2-(2,6-dioxopiperidin-3-yl)-1-oxoisoindolin-5-yl)methyl)-3-(3-hydroxy-4-methylphenyl)urea] |  | 96.8 ± 4.12 |  | 1250 | 98.3 | 
4 | 35.8 ± 20.4 | < 2.26 | Cc1ccc(NC(=O)NCc2ccc3c(c2O)CN(C2CCC(=O)NC2=O)C3=O)cc1Cl (centres unmarked) [IG-15, 1-(3-chloro-4-methylphenyl)-3-((2-(2,6-dioxopiperidin-3-yl)-4-hydroxy-1-oxoisoindolin-5-yl)methyl)urea] | 5.19 | 79.2 ± 9.1 | 4.25 | 54.9 | 91.1 ± 3.35 | 
5 |  |  | CNCCOCCc1ccc(NC(=O)NCc2ccc3c(c2)C(=O)N(C2CCC(=O)NC2=O)C3)cc1Cl (centres unmarked) [IG-20, 1-(3-chloro-4-(2-(2-(methylamino)ethoxy)ethyl)phenyl)-3-((2-(2,6-dioxopiperidin-3-yl)-3-oxoisoindolin-5-yl)methyl)urea] |  |  |  | > 10000 |  | Not active
6 | 28.9 |  | CC(C)(C)c1cccc(NC(=O)NCc2ccc3c(c2O)CN(C2CCC(=O)NC2=O)C3=O)c1 (centres unmarked) [IG-25, 1-(3-(tert-butyl)phenyl)-3-((2-(2,6-dioxopiperidin-3-yl)-4-hydroxy-1-oxoisoindolin-5-y1)methyl)urea] |  | 89.6 |  | 43.2 |  | 
7 |  |  | CC(C)(C)c1ccc(NC(=O)NCc2ccc3c(c2O)CN(C2CCC(=O)NC2=O)C3=O)cc1 (centres unmarked) [IG-26, 1-(4-(tert-butyl)phenyl)-3-((2-(2,6-dioxopiperidin-3-yl)-4-hydroxy-1-oxoisoindolin-5-y1)methyl)urea] |  | 22.1 |  | > 10000 |  | 
8 | 46.9 | 5.2 | CC(C)(C)c1ccccc1NC(=O)NCc1ccc2c(c1O)CN(C1CCC(=O)NC1=O)C2=O (centres unmarked) [IG-28, 1-(2-(tert-butyl)phenyl)-3-((2-(2,6-dioxopiperidin-3-yl)-4-hydroxy-1-oxoisoindolin-5-yl)methyl)urea] |  | 94.2 |  | 22.5 | 90.2 | 
9 |  |  | CNc1c(CNC(=O)Nc2ccc(C)c(Cl)c2)ccc2c1CN(C1CCC(=O)NC1=O)C2=O (centres unmarked) [IG-31, 1-(3-chloro-4-methylphenyl)-3-((2-(2,6-dioxopiperidin-3-yl)-4-(methylamino)-1-oxoisoindolin-5-yl)methyl)urea] |  | 18.6 |  | > 10000 |  | 
10 | 660 ± 997 | 4.62 | Cc1ccc(NC(=O)NCc2cc3c(cc2O)C(=O)N(C2CCC(=O)NC2=O)C3)cc1Cl (centres unmarked) [IG-36, 1-(3-chloro-4-methylphenyl)-3-((2-(2,6-dioxopiperidin-3-yl)-6-hydroxy-1-oxoisoindolin-5-yl)methyl)urea] | 3.5 | 78.5 ± 8.18 | 4.95 | 120 | 91.8 | 
11 | 139 | 7.88 | Cc1ccc(C(=O)C(=O)NCc2ccc3c(c2O)CN(C2CCC(=O)NC2=O)C3=O)cc1Cl (centres unmarked) [IG-37, 2-(3-chloro-4-methylphenyl)-N-((2-(2,6-dioxopiperidin-3-yl)-4-hydroxy-1-oxoisoindolin-5-y1)methyl)-2-oxoacetamide] | 4.2 | 70.9 | 9.6 | 72.5 | 95.2 | 
12 | 113 | 10.6 | O=C1CCC(N2Cc3c(ccc(CNC(=O)Nc4cccc5ccccc45)c3O)C2=O)C(=O)N1 (centres unmarked) [IG-38, 1-((2-(2,6-dioxopiperidin-3-yl)-4-hydroxy-1-oxoisoindolin-5-yl)methyl)-3-(naphthalen-1-yl)urea] |  | 93.7 |  | 35.9 | 94.1 | 
13 | 81.4 | 42.7 | O=C1CCC(N2Cc3c(ccc(CNC(=O)Nc4ccc5ccccc5c4)c3O)C2=O)C(=O)N1 (centres unmarked) [IG-39, 1-((2-(2,6-dioxopiperidin-3-yl)-4-hydroxy-1-oxoisoindolin-5-yl)methyl)-3-(naphthalen-2-yl)urea] | 14.1 | 69.4 |  |  | 77.4 | 
14 |  |  | O=C1CCC(N2Cc3c(ccc(CNC(=O)Nc4ccc(Br)c(Cl)c4)c3O)C2=O)C(=O)N1 (centres unmarked) [IG-40, 1-(4-bromo-3-chlorophenyl)-3-((2-(2,6-dioxopiperidin-3-yl)-4-hydroxy-1-oxoisoindolin-5-yl)methyl)urea] | 21.3 |  |  |  |  | 
15 |  |  | O=C1CCC(N2Cc3c(ccc(CNC(=O)Nc4ccc(I)c(Cl)c4)c3O)C2=O)C(=O)N1 (centres unmarked) [IG-41, 1-(3-chloro-4-iodophenyl)-3-((2-(2,6-dioxopiperidin-3-yl)-4-hydroxy-1-oxoisoindolin-5-yl)methyl)urea] | 17.1 |  |  | 25 |  | 
16 |  |  | CC(C)(C)c1ccc(NC(=O)NCc2ccc3nnn(C4CCC(=O)NC4=O)c(=O)c3c2)c(O)c1 (centres unmarked) [IG-49, 1-(4-(tert-butyl)-2-hydroxyphenyl)-3-((3-(2,6-dioxopiperidin-3-yl)-4-oxo-3,4-dihydrobenzo[d][1,2,3]triazin-6-yl)methyl)urea] | 41.7 |  |  |  |  | 
17 |  |  | CC(C)c1cc(NC(=O)NCc2ccc3c(c2O)CN(C2CCC(=O)NC2=O)C3=O)ccc1C(F)(F)F (centres unmarked) [IG-51, 1-((2-(2,6-dioxopiperidin-3-yl)-4-hydroxy-1-oxoisoindolin-5-yl)methyl)-3-(3-isopropyl-4-(trifluoromethyl)phenyl)urea] | 15.7 |  | 10.2 |  |  | 
18 |  |  | O=C1CCC(N2Cc3c(ccc(CNC(=O)C(F)(F)c4ccc(Cl)cc4)c3O)C2=O)C(=O)N1 (centres unmarked) [IG-52, 2-(4-chlorophenyl)-N-((2-(2,6-dioxopiperidin-3-yl)-4-hydroxy-1-oxoisoindolin-5-yl)methyl)-2,2-difluoroacetamide] | 443 |  | > 2000 |  |  | 
19 |  |  | Cc1c(Cl)cc(NC(=O)NCc2ccc3c(c2)CN(C2CCC(=O)NC2=O)C3=O)cc1N1CCOC1=O (centres unmarked) [IG-54, 1-(3-chloro-4-methyl-5-(2-oxooxazolidin-3-yl)phenyl)-3-((2-(2,6-dioxopiperidin-3-yl)-1-oxoisoindolin-5-yl)methyl)urea] | 14.5 |  | 6.9 |  |  | 
